Reference: US6528251B2, “Method of managing the chemotherapy of patients who are HIV positive based on the phenotypic drug sensitivity of human HIV strains” (Virco N.V., priority 1996, dated 2003)
Read-outs that look alike come from different tables or passages of the source.

Experiments:
Type in all cases: cell-based, HIV-1
[1] = tested on: recombinant virus from patient viral RNA (Example 10, drug-naive patient); experiment: Recombinant virus assay (MT4/MTT), drug-naive patient of Example 10; settings: for IC50: Human immunodeficiency virus 1, Table 6, Example 10 patient virus; for ratio (1)/(2): Table 6, patient mean IC50 / recIIIB IC50, Example 10
Protocol: (§1) RNA was isolated from 100 μl of plasma according to the method described by Boom, R. et al. (1990, supra), and was reverse transcribed with the GeneAmp reverse transcriptase kit (Perkin Elmer) as described by the manufacturer and using an HIV-1 specific downstream primer (OUT3: 5′-CATTGCTCTCCAATTACTGTGATATTTCTCATC-3′; SEQ ID NO: 1). PCR on reverse transcribed RNA was performed with inner and outer primers as described by Kellam, P. and Larder, B. A. (1994, supra). After chloroform extraction and centrifugation on Centricon 100 columns or centrifugation on anion-exchange spin columns (Quiagen), the isolated PCR product was ready for use in the transfection reactions.
(§2) MT4 cells were subcultured at a density of 250,000 cells/ml before transfection (exponential growth phase). Cells were pelleted and resuspended in phosphate buffered saline (PBS) at a concentration of […]. A 0.8 ml portion (2.5 10E6 cells/ml) was used for each transfection. Transfection was performed with the Bio-Rad Gene pulser making use of 0.4 cm electrode cuvettes. Cells were electroporated in the presence of […] of linearised pHIVΔRT plasmid and approximately 5 μg of RT PCR product at 250SF and 300 V, followed by a 30-min incubation at room temperature. Subsequently, 10 ml of fresh culture medium was added to the cell suspension and incubation was performed at 37° C. in a humidified atmosphere of 5% CO2.
(§3) During 7 to 10 days following the transfection, cells were monitored for the appearance of cytopathogenic effect (CPE). In the absence thereof, cells were subcultured in different flasks. Subsequently, culture supernatants of transfected cells were used to create a stock of recombinant virus and stored in 1.5 ml aliquots at −70° C.
(§4) After titration of the new viruses, the stocks were used for antiviral experiments in the presence of serial dilutions of different HIV inhibitors. Titres of the harvested supematants were determined by limited serial dilution titration of virus in MT4 cells.
(§5) Viruses with a useful titre were used in antiviral experiments. For this purpose, 96-well microtitre plates were filled with 100μl of complete culture medium. Subsequently, stock solutions of compounds were added in 25 μl volumes to series of duplicate wells. HIV- and mock-infected cell samples were included for each drug (or drug combination). Exponentially growing MT4 cells were then transferred to the microtitre plates at a density of 150,000 cells/ml. The cell cultures were then incubated at 37° C. in a humidified atmosphere of 5% CO2. Five days after infection, the viability of the mock- and HIV-infected cells was examined spectrophotometrically by the M1T method (Pauwels, R. et al. J. Virol. Meth. (1988), 20: 309-321) as described in Section 6 below.
(§6) To each well of the microtiter plates, 20 μl of a solution of MTT (7.5 mg/ml in PBS) was added. The plates were further incubated at 37° C. for 1 h. Then, 150 μl of medium was removed without disturbing the MT4 cell clusters containing the formazan crystals. Solubilization of the formazan crystals was achieved by adding 100 μl 5% Triton X-100 in acidified isopropanol (5 ml concentrated HCl per liter solvent). Complete dissolution of the formazan crystals was obtained after the plates had been placed on a plate shaker for 10 min. Finally the absorbances were read at two wavelengths (540 and 690 nm). From these optical density (OD) data, 50% inhibitory (IC50) and 50% cytotoxic (CC50) concentrations were derived.
(§7) A drug-naive HIV-infected patient donated plasma whose susceptibility to a number of RT inhibitors and protease inhibitors was determined according to the protocol set out in Example 1. Recombinant wild type HIV strain recIIIB was used as a reference HIV virus.

[2] = tested on: recombinant virus from plasma of HIV-infected individuals on NNRTI long-term monotherapy; experiment: Phenotyping of patients on NNRTI long-term monotherapy (Example 13), fold resistance
Protocol: as §4, §5, §6
Plasma samples were obtained from HIV-infected individuals who had been receiving non-nucleoside RT inhibitor (NNRTI) long-term monotherapy. HIV-RNA was extracted, reverse-transcribed and amplified as described in Example 1. Starting from outer PCR material of positive samples, the first 785 nucleotides of the RT gene were amplified and this material was further used for genotyping.
Amino acids changes at these positions are shown for each patient in the following rows. […] The right part of Table 9 presents the fold resistance to different RT inhibitors as determined by the method according to the invention for each of the patients' samples. NNRTI 1 is the non-nucleoside RT inhibitor that was administered to the patients.

[3] = tested on: recombinant virus from patient viral RNA (Example 11); experiment: Recombinant virus assay (MT4/MTT), patient of Example 11 (therapy history RT and protease inhibitors); settings: for ratio (1)/(2): Table 7, patient mean IC50 / recIIIB IC50, Example 11
Protocol: as §1, §2, §3, §4, §5, §6
as §7, with “An HIV infected” for “A drug-naive HIV-infected”, “patient with a therapy history including RT and protease inhibitors” for “patient”, “recIIIb” for “recIIIB”

[4] = tested on: recombinant virus from patient viral RNA (Example 12); experiment: Recombinant virus assay (MT4/MTT), patient of Example 12 (therapy history RT and protease inhibitors); settings: for ratio (1)/(2): Table 8, patient mean IC50 / recIIIB IC50, Example 12
Protocol: as §1, §2, §3, §4, §5, §6
An HIV infected patient with a therapy history including RT and protease inhibitors donated plasma whose susceptibility to a number of RT inhibitors and protease inhibitors was determined according to the protocol set out in Example 1.

[5] = MT4 cells, read-out: Anti-HIV-1 activity IC50 (μM) Exp. 1
[6] = MT4 cells, read-out: Anti-HIV-1 activity IC50 (μM) Exp. 2
[7] = mean, read-out: Anti-HIV-1 activity IC50 (μM) Mean (1)
[8] = Patient 4, no resistance associated mutation
[9] = Patient 5, no resistance associated mutation
[10] = Patient 11, RT mutations M41L, D67N, K70R, K103N, M184V, T215F, K219Q
[11] = Patient 12, RT mutations M41L, T215Y
[12] = Patient 13, RT mutations K101E, K103K/N, E138A, G190G/A
[13] = Patient 16, RT mutations K103N, M184V
[14] = Human immunodeficiency virus 1, MT4, read-out: Anti-HIV-1 activity IC50 (μM) Exp. 1
[15] = Human immunodeficiency virus 1, MT4, read-out: Anti-HIV-1 activity IC50 (μM) Exp. 2
[16] = Human immunodeficiency virus 1, read-out: Anti-HIV-1 activity IC50 (μM) Mean (1)

**Q.** Which results are given for `Nc1ccn([C@@H]2CS[C@H](CO)O2)c(=O)n1` [3TC, lamivudine]?
**A.** IC50 [1, 5]: 1.53 µM; IC50 [1, 6]: 1.72 µM; IC50 [1, 7]: 1.62 µM; ratio (1)/(2) [1]: 0.4; FOLD RESISTANCE TO ([2]; Patient 1, RT mutation K103N): 1 fold; FOLD RESISTANCE TO ([2]; Patient 2, RT mutation K103S): 0.4 fold; FOLD RESISTANCE TO ([2]; Patient 3, RT mutation K103N): 1 fold; FOLD RESISTANCE TO [2, 8]: 0.1 fold; FOLD RESISTANCE TO [2, 9]: 0.4 fold; FOLD RESISTANCE TO ([2]; Patient 6, RT mutation K103N): 0.3 fold; FOLD RESISTANCE TO ([2]; Patient 7, RT mutation K103S): 0.04 fold; FOLD RESISTANCE TO ([2]; Patient 8, RT mutation K103N): 1 fold; FOLD RESISTANCE TO ([2]; Patient 9, RT mutation Y181C): 1 fold; FOLD RESISTANCE TO ([2]; Patient 10, RT mutation K103N): 0.1 fold; FOLD RESISTANCE TO [2, 10]: >8 fold; FOLD RESISTANCE TO [2, 11]: 2 fold; FOLD RESISTANCE TO [2, 12]: 1 fold; FOLD RESISTANCE TO ([2]; Patient 14, RT mutation K103N): 1 fold; FOLD RESISTANCE TO ([2]; Patient 15, RT mutation K103N): 1 fold; FOLD RESISTANCE TO [2, 13]: >8 fold; FOLD RESISTANCE TO ([2]; Patient 17, RT mutation K103N): 1 fold; FOLD RESISTANCE TO ([2]; Patient 18, RT mutation K103S): 1 fold; FOLD RESISTANCE TO ([2]; Patient 19, RT mutation K103N): 1 fold; FOLD RESISTANCE TO ([2]; Patient 20, RT mutation A98G): 1 fold; FOLD RESISTANCE TO ([2]; Patient 21, RT mutation K103N): 0.4 fold; FOLD RESISTANCE TO ([2]; Patient 22, RT mutation V108I): 0.4 fold; FOLD RESISTANCE TO ([2]; Patient 23, RT mutation K103N): 0.2 fold; FOLD RESISTANCE TO ([2]; Patient 24, RT mutation K101Q): 1 fold; IC50 [3, 14]: > 100 µM; IC50 [3, 15]: 94 µM; IC50 [3, 16]: ≥ 97 µM; ratio (1)/(2) [3]: 19; IC50 [4, 14]: > 100 µM; IC50 [4, 15]: > 100 µM; IC50 [4, 16]: > 100 µM; ratio (1)/(2) [4]: 22

**Q.** What does the source list for `Cc1cn([C@H]2C[C@H](N=[N+]=[N-])[C@@H](CO)O2)c(=O)[nH]c1=O` [AZT, zidovudine]?
**A.** IC50 [1, 5]: 0.019 µM; IC50 [1, 6]: 0.019 µM; IC50 [1, 7]: 0.019 µM; ratio (1)/(2) [1]: 0.5; FOLD RESISTANCE TO ([2]; Patient 1, RT mutation K103N): 1 fold; FOLD RESISTANCE TO ([2]; Patient 2, RT mutation K103S): 1 fold; FOLD RESISTANCE TO ([2]; Patient 3, RT mutation K103N): 0.4 fold; FOLD RESISTANCE TO [2, 8]: 0.3 fold; FOLD RESISTANCE TO [2, 9]: 1 fold; FOLD RESISTANCE TO ([2]; Patient 6, RT mutation K103N): 1 fold; FOLD RESISTANCE TO ([2]; Patient 7, RT mutation K103S): 1 fold; FOLD RESISTANCE TO ([2]; Patient 8, RT mutation K103N): 1 fold; FOLD RESISTANCE TO ([2]; Patient 9, RT mutation Y181C): 2 fold; FOLD RESISTANCE TO ([2]; Patient 10, RT mutation K103N): 0.4 fold; FOLD RESISTANCE TO [2, 10]: 94 fold; FOLD RESISTANCE TO [2, 11]: 28 fold; FOLD RESISTANCE TO [2, 12]: 1 fold; FOLD RESISTANCE TO ([2]; Patient 14, RT mutation K103N): 1 fold; FOLD RESISTANCE TO ([2]; Patient 15, RT mutation K103N): 2 fold; FOLD RESISTANCE TO [2, 13]: 1 fold; FOLD RESISTANCE TO ([2]; Patient 17, RT mutation K103N): 1 fold; FOLD RESISTANCE TO ([2]; Patient 18, RT mutation K103S): 1 fold; FOLD RESISTANCE TO ([2]; Patient 19, RT mutation K103N): 1 fold; FOLD RESISTANCE TO ([2]; Patient 20, RT mutation A98G): 0.4 fold; FOLD RESISTANCE TO ([2]; Patient 21, RT mutation K103N): 1 fold; FOLD RESISTANCE TO ([2]; Patient 22, RT mutation V108I): 1 fold; FOLD RESISTANCE TO ([2]; Patient 23, RT mutation K103N): 0.2 fold; FOLD RESISTANCE TO ([2]; Patient 24, RT mutation K101Q): 1 fold; IC50 ([3]; Human immunodeficiency virus 1, Table 7, Example 11 patient virus, MT4 cells, read-out: Anti-HIV-1 activity IC50 (μM) Exp. 2): 0.015 µM; IC50 ([3]; Human immunodeficiency virus 1, Table 7, Example 11 patient virus, mean, read-out: Anti-HIV-1 activity IC50 (μM) Mean (1)): 0.015 µM; ratio (1)/(2) [3]: 0.3; susceptibility of the patient's HIV strain (in words) ([4]; Example 12 patient, conclusion from Table 8): decreased susceptibility; IC50 ([4]; Human immunodeficiency virus 1, Table 8, Example 12 patient virus, MT4 cells, read-out: Anti-HIV-1 activity IC50 (μM) Exp. 1): 3.83 µM; IC50 ([4]; Human immunodeficiency virus 1, Table 8, Example 12 patient virus, MT4 cells, read-out: Anti-HIV-1 activity IC50 (μM) Exp. 2): 3.35 µM; IC50 ([4]; Human immunodeficiency virus 1, Table 8, Example 12 patient virus, mean, read-out: Anti-HIV-1 activity IC50 (μM) Mean (1)): 3.59 µM; ratio (1)/(2) [4]: 88
